US12187782B2, “PDL1 peptides for use in cancer vaccines” (IO BIOTECH APS, priority 2016, dated 2025)
No end group written: not given here.

What was measured:
[1] = tested on: CD8 T-cells specific for the minimal epitope PDL111; experiment: ELISPOT with PDL111-specific CD8 T cells; type: cell-based, human
Text: (§1) The ELISPOT technique enabled screening a high number of peptide antigens for T-cell recognition, despite the availability of relatively few T-cells. We used the ELISPOT assay to quantify peptide-specific, effector cells that secreted IFN-γ, as described in Example 1. We performed the assays according to the guidelines provided by the cancer immunotherapy immunoguiding program (CIP; cimt.eu/cimt/files/dl/cip_guidelines.pdf). To measure T-cell reactivity, nitrocellulose-bottomed 96-well plates (MultiScreen MSIPN4W; Millipore) were coated overnight with the relevant antibodies. The wells were washed and blocked with X-vivo medium for 2 h. The Tumor Infiltrating Lymphoctyes (TILs) were added at different cell concentrations in triplicate wells, with PD-L1 peptides or with control peptide, and incubated overnight. The following day, the wells were washed, and the relevant biotinylated secondary antibody (Mabtech) was added, followed by the avidin-enzyme conjugate (AP-Avidin; Calbiochem/Invitrogen Life Technologies); finally, we added the enzyme substrate, NBT/BCIP (Invitrogen Life Technologies) for visualization. The spots on the developed ELISPOT plates were analyzed on a CTL ImmunoSpot S6 Ultimate-V analyzer with Immunospot software, v5.1.
[…] We analysed the reactivity towards PDL111, PDL1242-264 ([…]— PDLong2, SEQ ID NO: 91), 10104.1 (—OH) and 10104.1 (NH). […]

[2] = tested on: PBMCs from malignant melanoma patients; experiment: Co-stimulation assay: PBMCs stimulated with DCvacc plus peptide, read by intracellular TNFα/IFNγ staining; type: cell-based, human; settings: for CD4+ T cell reactivity toward DCvacc increased by co-stimulation (donors) / CD8+ T cell reactivity toward DCvacc increased by co-stimulation (donors): eight donors, vs control peptide
Procedure: PBMCs from malignant melanoma patients were stimulated with autologous DCvacc with ratio 1:10 DCvacc:PBMCs. […] Second stimulation with DCvacc was performed on day 7 and followed by peptide co-stimulation on day […] (120 U/mL) was added a day after each peptide co-stimulations. A week after second peptide co-stimulation the cultures were analyzed for DCvacc response using intracellular cytokine staining.
For detection of cell subpopulations producing cytokines (IFN-γ and TNF-α), PBMCs that were stimulated with DCvacc and co-stimulated with peptides for two weeks, were stimulated with DCvacc (ratio 1:10 DCvacc:PBMCs) for 5 hours at 37° C. with 5% CO2. GolgiPlug (BD) was added at a dilution of 1:200 after the first hour of incubation. After 4 additional hours cells were washed twice with PBS, stained fluorochrome conjugated antibodies for surface markers (CD3-Amcyan, CD4-PerCP and CD8-Pacific Blue, all from BD). Cells were washed one additional time and thereafter were fixed and permeabilized with Fixation/Permeabilization and Permeabilization Buffer (eBioscience), according to manufacturer's instructions. Cells were subsequently stained with fluorochrome-conjugated antibodies for intracellular cytokines. The following combinations were used: IFN-γ-PE-CY7 (BD), TNF-α-APC (eBioscience). […] Stained cells were analyzed using a BD FACSCanto II flow cytometer and further analysis was performed with BD FacsDiva Software.

[3] = tested on: tumor-infiltrating lymphocytes from 7 melanoma patients; experiment: IFNγ ELISPOT on tumor-infiltrating lymphocytes (Example 2); type: cell-based, human
Text: as §1

[4] = tested on: splenocytes; experiment: IFNγ-Elispot of splenocytes from IFNγ-injected mice, stimulated ex vivo with mPDL1 peptides (Example 3); type: cell-based, C56BL/6 mice; settings: splenocytes after prior IFNγ injection; 5 μg/ml peptide ex vivo, 18-20 hours
Procedure: C56BL/6 mice were injected with 1 μg IFNγ in 200 μl PBS i.p (or no injection for control) two days apart (day 0+2) to simulate inflammation. On day 5 the mice were sacrificed and a single cell solution of the removed spleen was made for further analysis by IFNγ-Elispot.
9×10^5 splenocytes/well were stimulated ex vivo in Elispot plates with 5 μg/ml peptides from murine (m)PDL1 for 18-20 hours. Spot count for the peptide stimulated wells was subtracted the background (spot count of wells with no peptide stimulation).
• Following sacrifice of mice, spleen (and draining lymph nodes (dLNs)) were removed. • Spleen and dLNs was smashed through a […] cell strainer into a 50 ml tube with media (RPMI+10% FCS+1% pen/strep) and washed for at 300 G for 5 minutes, repeated for dLNs. Splenocytes was lysed with RBC lysis buffer for 1 min and washed in media twice. • Cells were counted and transferred to IFNγ Ab-coated Elispot plates in cell number of 9×10^5 cells/well. Coating antibody: Anti-mouse IFN-g mAb AN18 (Mabtech cat no. 3321-3-1000). • Stimulatory peptides were added to designated wells in concentrations of 5 μg/ml. Control wells were not stimulated with peptide. • Elispot plates were developed after 18-20 hours. • Detection antibody Anti-mouse IFN-g mAb R4-6A2-Biotin (Mabtech cat no. 3321-6-1000). […]

[5] = tested on: cells from spleen and draining lymph nodes; experiment: IFNγ-Elispot of spleen and dLN cells from DNFB-treated mice, stimulated ex vivo with peptide (Example 4); type: cell-based, C56BL/6 mice; settings: not with control, 5 μg/ml peptide ex vivo
Procedure: A solution of 0.15% 2,4-dinitrofluorobenzene (DNFB; an allergen) in 1:4 olive oil/ace-tone (OOA) (or just OOA as a control) was painted on back of both ears of C56BL/6 mice for 3 consecutive days (days 0-2). On day 5 the mice were sacrificed and a single cell solution of the removed spleen and draining lymph nodes (dLNs) was made for further analysis by IFNγ-Elispot.
8-9×10^5 cells/well were stimulated ex vivo in Elispot plates with 5 μg/ml mPD-L1long1 (mLong1 from Example 3) or mPD-L1short (a part of the mLong1 peptide having the sequence […] (SEQ ID NO: 101)) for 18-20 hours. Spot count for the peptide stimulated wells was subtracted the background (spot count of wells with no peptide stimulation).
(§2) • Following sacrifice of mice, spleen (and draining lymph nodes (dLNs)) were removed. • Spleen and dLNs was smashed through a […] cell strainer into a 50 ml tube with media (RPMI+10% FCS+1% pen/strep) and washed for at 300 G for 5 minutes, repeated for dLNs. Splenocytes was lysed with RBC lysis buffer for 1 min and washed in media twice. • Cells were counted and transferred to IFNγ Ab-coated Elispot plates in cell number of 9×10^5 cells/well. Coating antibody: Anti-mouse IFN-g mAb AN18 (Mabtech cat no. 3321-3-1000). • Stimulatory peptides were added to designated wells in concentrations of 5 μg/ml. Control wells were not stimulated with peptide. • Elispot plates were developed after 18-20 hours. • Detection antibody Anti-mouse IFN-g mAb R4-6A2-Biotin (Mabtech cat no. 3321-6-1000). Avidin-enzyme conjugate (AP-Avidin; Calbiochem/Invitrogen Life Technologies) and enzyme substrate, NBT/BCIP (Invitrogen Life Technologies) used for visualization. • Spot count for peptide-stimulated wells was always subtracted the corresponding wells without peptide stimulation (the background) • Negative values were sat to zero.

[6] = tested on: PD-L1-specific T cells; experiment: Vaccination of mice with mPD-L1long1, IFNγ-Elispot (Example 5); type: in vivo, C56BL/6 mice
Procedure: C56BL/6 mice were vaccinated subcutaneously (s.c) on the lower back with 100 μg mPD-L1long1 (mLong1 from Example 3) with or without Montanide as an adjuvant (only Montanide as a control) at day 0. On day 7 the mice were sacrificed and a single cell solution of the removed spleen was made for further analysis by IFNγ-Elispot.
9×10^5 splenocytes/well were stimulated ex vivo in Elispot plates with 5 μg/ml mPD-L1long1 or mPD-L1short for 18-20 hours. Spot count for the peptide stimulated wells was subtracted the background (spot count of wells with no peptide stimulation).
as §2

[7] = PBMCs before vaccination (baseline)
[8] = peptide-vaccinated mice (100 μg s.c.) compared to adjuvant alone, day 7

Substance: Arg-Thr-His-Leu-Val-Ile-Leu-Gly-Ala-Ile-Leu-Leu-Cys-Leu-Gly-Val-Ala-Leu-Thr-Phe-Ile-Phe-Arg-Leu-Arg-Lys-Gly-Arg-OH (RTHLVILGAILLCLGVALTFIFRLRKGR-OH) [IO104.1-OH]
- reactivity of PDL111-specific CD8 T cells, ELISPOT [1]: able to react

Substance: FMTYWHLLNAFTVTVPKDL (listed as Homo sapiens) [PDLong1]
- CD4+ T cell reactivity toward DCvacc increased by co-stimulation (donors) ([2]; PBMCs after four vaccinations): all donors
- CD8+ T cell reactivity toward DCvacc increased by co-stimulation (donors) ([2]; PBMCs after four vaccinations): five out of eight donors
- CD4+ T cell reactivity toward DCvacc increased by co-stimulation (donors) [2, 7]: six out of eight donors
- CD8+ T cell reactivity toward DCvacc increased by co-stimulation (donors) [2, 7]: seven out of eight donors
- CD4+ T cells reacting against DCvacc compared to control peptide ([2]; all cultures, P=0.02): significantly greater extent
- CD8+ T cells reacting against DCvacc compared to control peptide ([2]; all cultures, P=0.05): significantly greater extent
- number of PBMCs that showed reactivity against DCvacc ([2]; cocultured with peptide compared to the control HIV epitope): increase

Substance: RTHLVILGAILLCLGVALTFIFRLRKGR (not fully specified; listed as Homo sapiens) [IO104.1, positions 238 to 265 of hPD-L1; C terminal acid or amide form]
- T cell response, IFNγ ELISPOT (patients responding) [3]: three of the patients

Substance: WVLLGSILLFLIVVSTVLLFLRKQV (listed as Mus musculus) [mLong3]
- recognition by T cells, IFNγ-Elispot [4]: most positive results

Substance: MRIFAGIIFTACCHLLRA (listed as Mus musculus) [mLong1]
- recognition by T cells, IFNγ-Elispot [4]: most positive results
- recognition by dLNs, IFNγ-Elispot [5]: recognized
- recognition by splenocytes, IFNγ-Elispot [5]: recognized
- PD-L1-specific T cell response in the draining lymph nodes (DLNs) [6, 8]: strong
- PD-L1-specific T cell response in the spleens [6, 8]: strong
- PD-L1-specific response by IFNγ Elispot, ex vivo stimulation with mPD-L1long ([6]; vaccinated mice): increased
- PD-L1-specific response by IFNγ Elispot, ex vivo stimulation with mPD-L1 short ([6]; vaccinated mice): increased

Substance: GIIFTACCHL (listed as Mus musculus) [mPD-L1short]
- recognition by dLNs, IFNγ-Elispot [5]: recognized
- recognition by splenocytes, IFNγ-Elispot [5]: recognized

Substance: Arg-Thr-His-Leu-Val-Ile-Leu-Gly-Ala-Ile-Leu-Leu-Cys-Leu-Gly-Val-Ala-Leu-Thr-Phe-Ile-Phe-Arg-Leu-Arg-Lys-Gly-Arg-NH2 (RTHLVILGAILLCLGVALTFIFRLRKGR-NH2) [IO104.1-NH2]
- reactivity of PDL111-specific CD8 T cells, ELISPOT [1]: able to react
